Assay [1] can be described thus: Effect of other analgesics on the light intensity required for a pain-related response (optical withdrawal testing). The class given is in vivo. The note with it: mice, blinded experiments. Here is the method: (§1) In mice that were co-injected with AAV6-hSyn-HA-hM4D-IRES-mCitrine and AAV6-hSyn-ChR2-YFP optical withdrawal testing was performed 2-3 weeks post injection. Mice were placed on a glass surface and allowed to habituate for 30-45 minutes. A 473 nm laser was connected to a fiber optic cable, and used to illuminate the paw regions of the mice at varying light intensities. Mice responded to the blue light with characteristic pain-signs, engaging in paw withdrawal, shaking, and licking. […] This value was termed the ‘optical withdrawal threshold’. Due to variation in the effective illumination spot, the optical withdrawal threshold was measured in total illuminated output (in mW), rather than in mW/mm^2. Mice were then briefly anesthetized with isoflurane, and injected intra-peritoneally with 100 μl of clozapine-N-oxide (for an effective dose of 10 mg/kg) or 100 μl of saline. Post-injection testing was done in a blinded manner, with optical withdrawal thresholds collected at 60-90 minutes. Data were then unblinded, and statistical significance assessed using the Student's t-test.

Assay [2] has as its target T1, hM4D(Gi) (Homo sapiens, UniProt P08173, A203G/Y113C).
T1 construct: HA (N); expressed in transfected cells; host or cells: mouse sciatic-nerve primary afferent nociceptors, transduced in vivo with AAV6 under the hSyn promoter
T1 sequence (P08173 1-479 Y113C/A203G): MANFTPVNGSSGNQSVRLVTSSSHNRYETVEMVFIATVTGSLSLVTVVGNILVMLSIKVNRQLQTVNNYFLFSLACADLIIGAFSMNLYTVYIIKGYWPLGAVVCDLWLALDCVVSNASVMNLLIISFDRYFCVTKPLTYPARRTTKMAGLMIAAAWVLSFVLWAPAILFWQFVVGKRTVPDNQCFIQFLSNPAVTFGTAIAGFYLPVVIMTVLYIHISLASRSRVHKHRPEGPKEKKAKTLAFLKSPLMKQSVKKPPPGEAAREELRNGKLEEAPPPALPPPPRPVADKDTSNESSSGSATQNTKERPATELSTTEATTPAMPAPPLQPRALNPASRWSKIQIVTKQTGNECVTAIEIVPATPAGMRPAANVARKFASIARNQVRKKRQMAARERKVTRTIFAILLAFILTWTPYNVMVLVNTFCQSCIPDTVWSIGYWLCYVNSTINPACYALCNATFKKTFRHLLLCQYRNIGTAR
Description: Mechanical withdrawal testing (von Frey) after intraperitoneal CNO in mice expressing hM4D. The class given is in vivo. Particulars: mice expressing hM4D receptor, 10 mg/kg CNO i.p., 60 min after administration, n=10 paws. Here is the method:
(§2) 6-8 week old mice were anesthetized with 2% isoflurane, the thigh region was cleaned and sterilized, and then the sciatic nerve was exposed. A 35 G needle was inserted into the nerve, and 2-5 μl of AAV6-hSyn-HA-hM4D-IRES-mCitrine was injected into the nerve, at the rate of 1 μl/min. The cavity was then closed, analgesics were administered, and the recovery of the mice was observed. In some experiments, mice were co-injected with 3 μl of AAV6-hSyn-ChR2-YFP, to allow for analysis of chemogenetic inhibition of optogenetically evoked pain response.
Mice were tested 3-5 weeks after intraneural injection. Mice were placed on a von Frey apparatus, and allowed to habituate for 1 hour. Mechanical withdrawal thresholds were obtained using the up-down method of testing. Mice were then briefly anesthetized with isoflurane, and injected intra-peritoneally with 100 μl of clozapine-N-oxide (for an effective dose of 10 mg/kg) or 100 μl of saline. Post-injection testing was done in a blinded manner, with mechanical withdrawal thresholds collected at 45-120 minutes post-injection. Data were then unblinded, and statistical significance assessed using the Student's t-test.

Assay [3] has as its target T1, hM4D(Gi). Description: Thermal withdrawal testing (Hargreaves) after intraperitoneal CNO in hM4D(Gi) mice. Type of assay: in vivo. The note with it: 10 mg/kg CNO i.p. As for the experimental part:
as §2
Mice were tested 3-5 weeks after intraneural injection. Mice were placed on a Hargreaves apparatus, and allowed to habituate for 1 hour. Thermal withdrawal latencies were then obtained. Mice were then briefly anesthetized with isoflurane, and injected intra-peritoneally with 100 μl of clozapine-N-oxide (for an effective dose of 10 mg/kg) or 100 μl of saline. Post-injection testing was done in a blinded manner, with thermal withdrawal latencies collected at 45-120 minutes post-injection. Data were then unblinded, and statistical significance assessed using the Student's t-test.

Assay [4] addresses T1, hM4D(Gi). Description: Optical withdrawal testing after CNO in hM4D+/ChR2+ mice. The class given is in vivo. Particulars: 10 mg/kg CNO i.p., 60 min after administration, n=5 mice. Here is the method:
as §2
as §1, with “Mice were then briefly anesthetized with isoflurane, and injected intra-peritoneally with 100 μl of clozapine-N-oxide (for an effective dose of 10 mg/kg) or 100 μl of saline. Post-injection testing was done in a blinded manner, with optical withdrawal thresholds collected at 60-90 minutes.” left out

Assay [5] deals with primary afferents. The note with it: previously reported optogenetic inhibition of primary afferents; cited from earlier work.
Assay [6] deals with primary afferents. Particulars: previously observed optogenetic inhibition of thermal perception; cited from earlier work.

The values that follow come from patent publication US20190083573A1, “DESIGNER RECEPTORS FOR […] AND METHODS OF USE THEREOF” (The Board of Trustees of the Leland Stanford Junior …, priority 2016, published 2019).

On to `NCC1(CC(=O)O)CCCCC1` [gabapentin], for which the “effect on optical light sensitivity” value in assay [1] was “strong effects”.
For `C[N+]1([O-])CCN(C2=Nc3cc(Cl)ccc3Nc3ccccc32)CC1` [CNO, clozapine-N-oxide], on hM4D(Gi) [2], the “effect size, mechanical withdrawal thresholds” value is recorded as 1.3 and the “increase in mechanical withdrawal thresholds” value is given as 45%. Moreover, on hM4D(Gi) [3] (60 minutes post-injection), the “effect size, thermal thresholds” value worked out at 1.903 and the “increase in thermal thresholds” value was 61%. For the same molecule, at hM4D(Gi) [3] (90 minutes post-injection), the “effect size, thermal thresholds” value came out at 2.2245 and the “increase in thermal thresholds” value is on record as 54%. Besides, on hM4D(Gi) [4], the “effect size, optical withdrawal threshold” value amounted to 1.603 and the “increase in required light intensity to achieve a pain-related response (optical withdrawal threshold)” value was 418%.

B1: NpHR: hyperpolarizing light-activatable polypeptide used for optogenetic inhibition (protein, UniProt P15647 1-291, looked up)
Halorhodopsin: MTETLPPVTESAVALQAEVTQRELFEFVLNDPLLASSLYINIALAGLSILLFVFMTRGLDDPRAKLIAVSTILVPVVSIASYTGLASGLTISVLEMPAGHFAEGSSVMLGGEEVDGVVTMWGRYLTWALSTPMILLALGLLAGSNATKLFTAITFDIAMCVTGLAAALTTSSHLMRWFWYAISCACFLVVLYILLVEWAQDAKAAGTADMFNTLKLLTVVMWLGYPIVWALGVEGIAVLPVGVTSWGYSFLDIVAKYIFAFLLLNYLTSNESVVSGSILDVPSASGTPADD
As for B1, in the assay with primary afferents [5], the “effect size of inhibition, mechanical” value was 0.802. The “effect size of inhibition, thermal perception” value with primary afferents [6] is 2.05.
